Values of other authors, collected in PMC11634579, “Network pharmacology, experimental validation and pharmacokinetics integrated strategy to reveal pharmacological mechanism of goutengsan on methamphetamine dependence” (Frontiers in Pharmacology, 2024).

Parameters: method as in Ru et al., 2014
Settings: obtained from TCMSP database; ref Ru et al., 2014; cited from earlier work
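Throughout, for BBB (blood–brain–barrier): unitless TCMSP predicted score with screening cut-off BBB at least 0.3.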

CC(C)=CCOc1c2ccoc2cc2oc(=O)ccc12 [Isoimperatorin]
BBB (blood–brain–barrier): 0.66
OB% (oral bioavailability): 45.46%

CCCCCC=CCC=CCCCCCCCCCC(=O)OC [Methyl icosa-11,14-dienoate]
BBB (blood–brain–barrier): 1.10
OB% (oral bioavailability): 39.67%

CC(C)=CCc1c2ccoc2c(O)c2oc(=O)ccc12 [Prangenidin]
BBB (blood–brain–barrier): 0.50
OB% (oral bioavailability): 36.31%

CCCCC[C@H](O)CC(=O)CCc1ccc(O)c(OC)c1 [6-Gingerol]
BBB (blood–brain–barrier): 1.22
OB% (oral bioavailability): 61.22%

CCCCCCCCOC(=O)c1ccccc1C(=O)OCCCC [Butyl octyl phthalate]
BBB (blood–brain–barrier): 0.60
OB% (oral bioavailability): 43.74%

Oc1ccc2c(c1)OC[C@H]1c3cc4c(cc3O[C@@H]21)OCO4 [Inermin]
BBB (blood–brain–barrier): 0.36
OB% (oral bioavailability): 65.83%

CC(C)=CCC[C@@H](C)[C@H]1CC[C@@]2(C)[C@@H]3CC[C@H]4C(C)(C)[C@@H](O)CC[C@@]45C[C@@]35CC[C@]12C [Cycloartenol]
BBB (blood–brain–barrier): 1.33

CC[C@H]1CN2CCc3c([nH]c4ccccc34)[C@H]2C[C@@H]1/C(=C\OC)C(=O)OC [Hirsutine]
BBB (blood–brain–barrier): 0.78
OB% (oral bioavailability): 34.44%

CCCCC/C=C\C/C=C\CCCCCCCC(=O)OCC [Mandenol]
BBB (blood–brain–barrier): 1.14
OB% (oral bioavailability): 42.00%

Oc1ccc2c(c1)OC[C@H]1c3cc4c(cc3O[C@@H]21)OCO4 [Inermine]
BBB (blood–brain–barrier): 0.40
OB% (oral bioavailability): 75.18%

CC1(C)C=Cc2c(ccc3c2OC[C@@H](c2ccc(O)cc2O)C3)O1 [Glabridin]
BBB (blood–brain–barrier): 0.36
OB% (oral bioavailability): 53.25%

C=C[C@H]1CN2CC[C@]3(C(=O)Nc4ccccc43)[C@@H]2C[C@@H]1/C(=C\OC)C(=O)OC [Corynoxeine]
BBB (blood–brain–barrier): 0.50
OB% (oral bioavailability): 57.13%

Medicarpin
BBB (blood–brain–barrier): 0.53
OB% (oral bioavailability): 49.22%

CC(C)=CCc1c(O)cc(O)c2c1O[C@H](c1ccccc1)CC2=O [Glabranin]
BBB (blood–brain–barrier): 0.31
OB% (oral bioavailability): 52.90%

COc1cc(CNC(=O)CCCCCCC(C)C)ccc1O [Dihydrocapsaicin]
BBB (blood–brain–barrier): 0.47
OB% (oral bioavailability): 47.07%

CC(C)[C@@H](C)/C=C/[C@@H](C)[C@H]1CC[C@@H]2[C@]1(C)CC[C@H]1[C@]23C=C[C@]2(C[C@@H](O)CC[C@]12C)OO3 [Ergosterol peroxide]
BBB (blood–brain–barrier): 0.34
OB% (oral bioavailability): 40.36%

CCCCC/C=C\C/C=C\C/C=C\C/C=C\CCCC(=O)O [Arachidonate]
BBB (blood–brain–barrier): 0.58
OB% (oral bioavailability): 45.57%

COc1c2ccoc2c(OCC=C(C)C)c2oc(=O)ccc12 [Phellopterin]
BBB (blood–brain–barrier): 0.48
OB% (oral bioavailability): 40.19%

CC[C@H](CC[C@@H](C)[C@H]1CC[C@H]2[C@@H]3CC=C4C[C@@H](O)CC[C@]4(C)[C@H]3CC[C@]12C)C(C)C [Beta-sitosterol]
BBB (blood–brain–barrier): 0.99

CC1(C)C=Cc2c(ccc3c2OC[C@H]2c4ccc(O)cc4O[C@@H]32)O1 [Shinpterocarpin]
BBB (blood–brain–barrier): 0.68
OB% (oral bioavailability): 80.30%

CC[C@H]1CN2CC[C@@]3(C(=O)Nc4ccccc43)[C@@H]2C[C@@H]1/C(=C\OC)C(=O)OC [Isorhyncophylline]
BBB (blood–brain–barrier): 0.33
OB% (oral bioavailability): 47.31%

CCC(CC[C@@H](C)[C@H]1CC[C@H]2[C@@H]3CCC4=CC(=O)CC[C@]4(C)[C@H]3CC[C@]12C)C(C)C (stereo partly shown) [24-ethylcholest-4-en-3-one]
BBB (blood–brain–barrier): 1.22
OB% (oral bioavailability): 36.08%

CC(C)=CCOc1c2occc2cc2ccc(=O)oc12 [Ammidin]
BBB (blood–brain–barrier): 0.92
OB% (oral bioavailability): 34.55%

COc1c2ccoc2c(OCC=C(C)C)c2oc(=O)ccc12 [Phelloptorin]
BBB (blood–brain–barrier): 0.43
OB% (oral bioavailability): 43.39%

CC[C@@H](CC[C@@H](C)[C@H]1CC[C@H]2[C@@H]3CC=C4C[C@@H](O)CC[C@]4(C)[C@H]3CC[C@]12C)C(C)C [Clionasterol]
BBB (blood–brain–barrier): 1.14

COc1cc2c(cc1OC)[C@H]1[C@@H](C)c3ccc4c(c3CN1CC2)OCO4 [Cavidine]
BBB (blood–brain–barrier): 0.63
OB% (oral bioavailability): 35.64%

CC(C)[C@@H](C)/C=C/[C@@H](C)[C@H]1CC[C@H]2C3=CC[C@H]4C[C@@H](O)CC[C@]4(C)[C@H]3CC[C@]12C [5-dihydroergosterol]
BBB (blood–brain–barrier): 0.91
OB% (oral bioavailability): 43.51%

COC(=O)C1=CO[C@@H](C)[C@@H]2CN3CCc4c([nH]c5ccccc45)[C@@H]3C[C@H]12 [Tetrahydroalstonine]
BBB (blood–brain–barrier): 0.33
OB% (oral bioavailability): 32.42%

C=C(C(=O)OC1CC2NC(C1)C1OC21)c1ccccc1 (stereo not shown) [Aponorhyoscine]
BBB (blood–brain–barrier): 0.40
OB% (oral bioavailability): 66.65%

CCCCCCC=CCC=CCCCCCCCCC(=O)O [10,13-eicosadienoic acid]
BBB (blood–brain–barrier): 0.82
OB% (oral bioavailability): 39.99%

CC1(C)C=Cc2cc([C@@H]3CC(=O)c4ccc5c(c4O3)C=CC(C)(C)O5)ccc2O1 [Xambioona]
BBB (blood–brain–barrier): 0.52
OB% (oral bioavailability): 54.85%

COc1c(O)ccc(C2COc3c(ccc4c3C=CC(C)(C)O4)C2)c1O (stereo not shown) [3′-methoxyglabridin]
BBB (blood–brain–barrier): 0.47
OB% (oral bioavailability): 46.16%

CC[C@H](CC[C@@H](C)[C@H]1CC[C@H]2[C@@H]3CC=C4C[C@@H](O)CC[C@]4(C)[C@H]3CC[C@]12C)C(C)C [Sitosterol]
BBB (blood–brain–barrier): 0.87

CC[C@H](/C=C/[C@@H](C)[C@H]1CC[C@H]2[C@@H]3CC=C4C[C@@H](O)CC[C@]4(C)[C@H]3CC[C@]12C)C(C)C [Stigmasterol]
BBB (blood–brain–barrier): 1.00
OB% (oral bioavailability): 43.83%

CC1(C)C=Cc2c(ccc([C@@H]3COc4cc(O)ccc4C3)c2O)O1 [Phaseolinisoflavan]
BBB (blood–brain–barrier): 0.46
OB% (oral bioavailability): 32.01%

CCCCCCCCCCCCCCC=CCCCC(=O)O [Icos-5-enoic acid]
BBB (blood–brain–barrier): 1.09
OB% (oral bioavailability): 30.70%

O=c1oc2ccccc2c2oc3ccccc3c(=O)c12 [Frutinone A]
BBB (blood–brain–barrier): 0.46
OB% (oral bioavailability): 65.90%
